The term logP denotes a log measure of how a compound divides between an organic and an aqueous phase. Read a high logP as higher lipophilicity. Turning to `c1ncc(CCCc2nc(C3CCCCC3)c[nH]2)[nH]1`, the log partition coefficient (logP) worked out at 2.94.

Compound `c1ccc2sc(SCCc3cnc[nH]3)nc2c1` came in with a logP of 3.12.

On to `c1ccc(-c2cnc(SCCc3cnc[nH]3)[nH]2)cc1`, for which the logP worked out at 2.45.

`c1ccc(-c2c[nH]c(CCCc3cnc[nH]3)n2)cc1` had a logP of 2.5.

Turning to `S=C(NC1CCCCC1)N1CCC(c2cnc[nH]2)CC1`, the logP stood at 2.4.

As for `Clc1ccc2[nH]c(NCCCc3cnc[nH]3)nc2c1`, the logP came to 2.49.

The compound `c1ccc2sc(NCCc3c[nH]cn3)nc2c1` returned a logP of 2.36.

`c1ccc2sc(NCCCc3cnc[nH]3)nc2c1`: the lipophilicity (logP) is 2.71.

`O=S(=O)(Cc1ccc(Cl)cc1)NCCCCc1cnc[nH]1` yielded a logP of 2.23.

As to `Clc1ccc(Cc2noc(CCc3cnc[nH]3)n2)cc1`, the logP was 2.51.

`c1ccc2sc(SCCCc3cnc[nH]3)nc2c1` gave a logP of 3.24.

The record behind these values is the SangsterLogP compilation.
